# In US8921380B2, “Pyrazolo[1,5-a] pyrimidine compounds as CB1 receptor antagonist” (Mitsubishi Tanabe Pharma Corporation, priority 2006, dated 2014):
# Target: T1, Human CB1 receptor (Homo sapiens, UniProt P21554)
# T1 construct: host or cells: CHO (hCB1/CHO), membrane fraction
# Test: Human CB1 receptor binding assay ([3H]-CP55940, hCB1/CHO membrane fraction)
# Conditions: Experiment 1; inhibition of [3H]-CP55940 binding to hCB1/CHO membranes
# Protocol: [Human CB1 Receptor Binding Assay]
# (1) Preparation of Human CB1 Receptor (Membrane Fraction):
# Human CB1-expressing cell line: hCB1/CHO (#ES-110-C, Euroscreen)
# Buffer A: 50 mM tris-HCl (pH 7.5) containing ethylenediaminetetraacetic acid (2.5 mM), MgCl2 (5 mM) and sucrose (200 mM)
# Method) The receptor-expressing cells cultivated in the above medium were washed with phosphate buffer (×2 times) and thereto was added Buffer A (2 mL) under ice-cooling or 4° C. (the following procedures were also carried out at the same temperature). The cells were collected by using a cell-scraper, treated by a microtip-type ultrasonicator for 20 seconds (pulse-on: 2 sec, pulse-off: 1 sec) and centrifuged (500×g, 15 min). The supernatant was separated and centrifuged (43000×g, 60 min). The resultant pellet was suspended in Buffer A and homogenized with a potter-type homogenizer. To the homogenate was added an equal volume of 80% glycerol and stored at −80° C.
# (2) Procedure of CB1 Receptor Binding Assay:
# Buffer B: 50 mM tris-HCl (pH 7.5) containing ethylenediaminetetraacetic acid (2.5 mM), MgCl2 (5 mM) and bovine serum albumine (2 mg/mL, fatty acid-free, SIGMA-A7030)
# Buffer C: 50 mM tris-HCl (pH 7.5) containing ethylenediaminetetraacetic acid (2.5 mM), MgCl2 (5 mM) and bovine serum albumine (2 mg/mL, SIGMA-A7906)
# Coating solution: 0.3% ethyleneimine polymer
# Radioligand: [^3H]-CP55940 (30 nM, 7992 dpm/μL, PerkinElmer, #NET-1051) prepared by diluting 8.3 μM solution of the radioligand with Buffer B
# Method) Each well of the assay plate (96-well, Corning Costar Code#3371) was filled with Buffer B (140 μL), a solution of each test compound in dimethylsulfoxide (20 μL, […]), radioligand (20 μL) and membrane preparation (20 μL, 0.5 to 8.0 μg/20 μL) and the mixture was incubated at room temperature for 90 minutes to proceed the binding reaction. The reaction mixture was filtered through Unifilter GF/B (Packard#6005177) presoaked with the above coating solution to collect the membrane fraction. The plate was washed with Buffer C (200 μL×10 times) and dried at 50° C. for 1 hour and Microscinti 40 (40 μL/well) was added to each well. The bound radiolabel was quantitated by a scintilation counter (Top Count NXT, Packard). IC50 value of each test compound against the radioligand-binding to CB1 receptors was calculated on the basis of the quantitated radiolabel activity by using Microsoft Excel 2000 (Microsoft).
# (§1) a) Human CB1 receptor-binding assay: The binding assay was conducted in the same manner as described in Experiment 1.
# T1 sequence (P21554 whole entry): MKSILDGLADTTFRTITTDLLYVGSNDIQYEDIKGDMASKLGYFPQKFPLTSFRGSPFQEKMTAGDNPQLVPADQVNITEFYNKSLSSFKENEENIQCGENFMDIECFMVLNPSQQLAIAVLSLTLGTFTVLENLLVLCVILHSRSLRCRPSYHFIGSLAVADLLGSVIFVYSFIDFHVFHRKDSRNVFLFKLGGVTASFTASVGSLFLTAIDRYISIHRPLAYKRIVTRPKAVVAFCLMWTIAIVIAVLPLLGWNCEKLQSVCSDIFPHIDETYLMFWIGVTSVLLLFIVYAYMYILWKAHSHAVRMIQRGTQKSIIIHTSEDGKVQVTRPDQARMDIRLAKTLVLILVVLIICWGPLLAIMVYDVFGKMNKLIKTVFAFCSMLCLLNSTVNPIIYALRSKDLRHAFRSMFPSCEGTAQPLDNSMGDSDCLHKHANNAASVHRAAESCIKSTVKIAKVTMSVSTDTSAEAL
row,Compound,IC50 [nM]
1,CNS(=O)(=O)c1nn2c(-c3ccc(Cl)cc3)c(-c3ccccc3Cl)cnc2c1C(=O)N[C@@H]1CCS(=O)(=O)C1 [Example B6],10 to 100
2,CC1(NC(=O)c2cnn3c(-c4ccc(Cl)cc4)c(-c4ccccc4Cl)cnc23)CCCCC1 [Example A10],10 to 100
3,CN(NC(=O)c1c(S(=O)(=O)N(C)C)nn2c(-c3ccc(Cl)cc3)c(-c3ccccc3Cl)cnc12)c1ccccn1 [Example B12],10 to 100
4,Cc1nn2c(-c3ccc(C(F)(F)F)cc3)c(-c3ccccc3Cl)cnc2c1C(=O)NC1(C#N)CCCCC1 [Example A13],10 to 100
5,CN(NC(=O)c1c(S(N)(=O)=O)nn2c(-c3ccc(Cl)cc3)c(-c3ccccc3Cl)cnc12)c1ccccn1 [Example B15],< 10
6,N#Cc1ccccc1-c1cnc2c(C(=O)NC3CCCC3)c(S(N)(=O)=O)nn2c1-c1ccc(Cl)cc1 [Example B23],< 10
7,CC(NC(=O)c1cnn2c(-c3ccc(Cl)cc3F)c(-c3ccccc3Cl)cnc12)c1ccccn1 (centres unmarked) [Example A15],10 to 100

# Next, values leading:
row,IC50 [nM],Compound
1,10 to 100,"CNC(=O)C1(NC(=O)c2cnn3c(-c4ccc(Cl)cc4)c(-c4ccccc4Cl)cnc23)CCCCC1 [Example A5, 6-(2-chlorophenyl)-7-(4-chlorophenyl)-3-[N-[1-(N-methylcarbamoyl)cyclohexyl]-carbamoyl]pyrazolo[1,5-a]pyrimidine]"
2,10 to 100,NC(=O)CNS(=O)(=O)c1nn2c(-c3ccc(Cl)cc3)c(-c3ccccc3Cl)cnc2c1C(=O)NC1CCCC1 [Example B26]
3,< 10,NS(=O)(=O)c1nn2c(-c3ccc(Cl)cc3)c(-c3ccccc3Cl)cnc2c1C(=O)NN1CCCC1 [Example B14]
4,10 to 100,"NC(=O)C1(NC(=O)c2c(S(N)(=O)=O)nn3c(-c4ccc(Cl)cc4)c(-c4ccccc4Cl)cnc23)CCCCC1 [Example B30, 3-[N-(1-carbamoylcyclohexyl)carbamoyl]-6-(2-chlorophenyl)-7-(4-chlorophenyl)-2-sulfamoylpyrazolo[1,5-a]pyrimidine]"

# Same assay, conditions: Experiment 2; same method as Experiment 1
row,Compound,IC50 [nM]
1,CC1(NC(=O)c2c(OCCO)nn3c(-c4ccc(Cl)cc4)c(-c4ccccc4Cl)cnc23)CCS(=O)(=O)C1 (centres unmarked) [Example A140],< 10
2,CN(C)NC(=O)c1c(S(N)(=O)=O)nn2c(-c3ccc(C(F)F)cc3)c(-c3ccccc3Cl)cnc12 [Example B84],10 to 100
3,CNC(=O)c1nn2c(-c3ccc(C(F)(F)F)cc3)c(-c3ccccc3Cl)cnc2c1C(=O)NC1(C)CCS(=O)(=O)CC1 [Example B36],< 10
4,"CC1(NC(=O)c2c(CO)nn3c(-c4ccc(C(F)(F)F)cc4)c(-c4ccccc4Cl)cnc23)CCS(=O)(=O)CC1 [Example B32, 6-(2-chlorophenyl)-7-(4-trifluoromethylphenyl)-2-hydroxymethyl-3-[N-(4-methyl-1,1-dioxotetrahydrothiopyran-4-yl)-carbamoyl]pyrazolo[1,5-a]pyrimidine]",< 10
5,N#Cc1ccccc1-c1cnc2c(C(=O)NC3(C(N)=O)CCS(=O)(=O)CC3)cnn2c1-c1ccc(C(F)(F)F)cc1 [Example A146],10 to 100

# Results, then the molecule that gave them:
row,IC50 [nM],Compound
1,< 10,CC1(NC(=O)c2c(S(N)(=O)=O)nn3c(-c4ccc(Cl)cc4)c(-c4ccccc4Cl)cnc23)CC1 [Example B74]
2,10 to 100,"NC(=O)C1(NC(=O)c2cnn3c(-c4ccc(Cl)cc4)c(-c4ccccc4Cl)cnc23)CCS(=O)(=O)CC1 [Example A3, 3-[N-(4-carbamoyl-1,1-dioxo-tetrahydrothiopyran-4-yl)carbamoyl]-6-(2-chlorophenyl)-7-(4-chlorophenyl)pyrazolo[1,5-a]pyrimidine]"
3,10 to 100,Cc1nn2c(-c3ccc(Cl)cc3)c(-c3ccccc3Cl)cnc2c1C(=O)NC1(C(N)=O)CCS(=O)(=O)CC1 [Example A175]

# Target: T2, Human CB2 receptor (Homo sapiens, UniProt P34972)
# T2 construct: expressed in transfected cells; host or cells: CHO (hCB2/CHO), membrane fraction
# Test: Human CB2 receptor-binding assay (hCB2/CHO) for selectivity to CB1 receptors
# Conditions: ratio of IC50 value for CB2/IC50 value for CB1
# Protocol: (1) Materials and Methods
# as §1
# b) Human CB2 receptor-binding assay: The binding assay was conducted in the same manner as described in Experiment 1, except that human CB2-expressing CHO cell line (hCB2/CHO) was used instead of hCB1 cell line. IC50 value of each test compound against the radioligand-binding to CB2 receptors was calculated in the manner as described in Experiment 1. Besides, selectivity to CB1 receptors was evaluated in terms of the ratio of IC50 value for CB2/IC50 value for CB1.
# T2 sequence (P34972 whole entry): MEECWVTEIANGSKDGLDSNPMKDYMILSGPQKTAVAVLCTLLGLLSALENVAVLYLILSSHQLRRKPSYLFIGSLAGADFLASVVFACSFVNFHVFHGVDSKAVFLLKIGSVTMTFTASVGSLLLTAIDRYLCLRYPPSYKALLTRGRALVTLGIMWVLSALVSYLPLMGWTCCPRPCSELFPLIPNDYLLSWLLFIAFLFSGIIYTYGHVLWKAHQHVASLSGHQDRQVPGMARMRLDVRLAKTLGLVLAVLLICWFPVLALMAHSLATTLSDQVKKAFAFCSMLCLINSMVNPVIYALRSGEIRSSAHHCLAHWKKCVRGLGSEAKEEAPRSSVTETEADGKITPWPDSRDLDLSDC
row,Selectivity,Compound
1,>500,"NC(=O)C1(NC(=O)c2cnn3c(-c4ccc(Cl)cc4)c(-c4ccccc4Cl)cnc23)CCS(=O)(=O)CC1 [Example A3, 3-[N-(4-carbamoyl-1,1-dioxo-tetrahydrothiopyran-4-yl)carbamoyl]-6-(2-chlorophenyl)-7-(4-chlorophenyl)pyrazolo[1,5-a]pyrimidine]"
